Test results from patent US5844102A, “Glycohydrolase inhibitors, their preparation and use thereof” (University of Maryland Baltimore County, priority 1994, dated 1998).
pKi: −log10 of the molar value. Like-named read-outs stand apart in the source and are kept apart here.

Key:
[1] = in vivo; cited from earlier work
lysosomal α-glucosidase = target: T1, lysosomal α-glucosidase (Rattus norvegicus, UniProt Q6P7A9); conditions: cited from earlier work
T1 construct: host or cells: liver (in vivo)

Glucoamylase = target: T2, Glucoamylase (Aspergillus awamori, UniProt P69327); experiment: glucoamylase inhibition, maltose substrate; assay type: biochemical
T2 construct: made in house; host or cells: yeast
T2 sequence (P69327 25-640): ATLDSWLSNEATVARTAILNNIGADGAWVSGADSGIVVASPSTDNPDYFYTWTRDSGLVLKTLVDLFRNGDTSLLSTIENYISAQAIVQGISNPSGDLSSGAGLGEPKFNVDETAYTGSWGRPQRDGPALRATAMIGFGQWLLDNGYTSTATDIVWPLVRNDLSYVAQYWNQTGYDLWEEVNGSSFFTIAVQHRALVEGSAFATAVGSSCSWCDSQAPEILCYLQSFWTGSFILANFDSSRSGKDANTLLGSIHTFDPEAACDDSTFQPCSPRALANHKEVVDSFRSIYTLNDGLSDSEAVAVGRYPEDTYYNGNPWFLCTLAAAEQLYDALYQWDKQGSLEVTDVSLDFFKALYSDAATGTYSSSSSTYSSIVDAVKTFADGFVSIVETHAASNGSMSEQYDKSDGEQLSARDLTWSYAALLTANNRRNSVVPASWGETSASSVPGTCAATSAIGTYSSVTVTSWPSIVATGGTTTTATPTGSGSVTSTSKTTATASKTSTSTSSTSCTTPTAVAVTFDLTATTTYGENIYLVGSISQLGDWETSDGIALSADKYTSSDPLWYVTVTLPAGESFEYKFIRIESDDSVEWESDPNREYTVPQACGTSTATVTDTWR
Procedure: (§1) The enzymes α-glucosidase (yeast), β-glucosidase (almonds), isomaltase (bakers yeast) and α-mannosidase (jackbean) were purchased from Sigma Chemical Company. Glucoamylase was isolated by the present inventors by expressing the gene from Aspergillus awamori in yeast, by methods well known in the art. Enzyme assays were performed by using p-nitrophenol -α (or β)-glucopyranosides as substrate at 37° C. in phosphate buffer (0.05M, pH 6.8) for α (β)-glucosidase and isomaltase, and p-nitrophenol-α-mannopyranoside as substrate at 25° C. in citrate (0.05M, pH 4.5) buffer for α-mannosidase. Glucoamylase was assayed using maltose as substrate at 50° C. in sodium acetate buffer (0.05M, pH 4.5).
(§2) Michaelis-Menten constant, Km, was calculated using software Grafit (Erithacus Software Ltd.). Ki was calculated by plotting K^appm vs. [Inhibitor]. FIG. 2(a) represents a plot of K^appm vs. [Inhibitor], wherein the inhibitor is the monosaccharide sugar analog isofagomin, obtained for five different glycosidases.

β-glucosidase (almonds) = experiment: β-glucosidase inhibition, p-nitrophenol-β-glucopyranoside substrate; assay type: biochemical; conditions: for pKi: 37° C., phosphate buffer 0.05M, pH 6.8, read-out: Ki (inhibition constant), β-Glucosidase; for inhibition of β-glucosidase, in words: hydrochloride
Procedure: as §1
as §2, with “glycosidases. FIG. 2(b) represents a similar plot of K^appm vs. [Inhibitor], wherein the inhibitor is the disaccharide sugar analog of formula II, obtained for five different glycosidases.” for “glycosidases.”

[2] = target: T3, isomaltase (bakers yeast) (Saccharomyces cerevisiae, UniProt P53051); experiment: isomaltase inhibition, p-nitrophenol glucopyranoside substrate; assay type: biochemical
T3 construct: purchased Sigma Chemical Company
T3 sequence (P53051 whole entry): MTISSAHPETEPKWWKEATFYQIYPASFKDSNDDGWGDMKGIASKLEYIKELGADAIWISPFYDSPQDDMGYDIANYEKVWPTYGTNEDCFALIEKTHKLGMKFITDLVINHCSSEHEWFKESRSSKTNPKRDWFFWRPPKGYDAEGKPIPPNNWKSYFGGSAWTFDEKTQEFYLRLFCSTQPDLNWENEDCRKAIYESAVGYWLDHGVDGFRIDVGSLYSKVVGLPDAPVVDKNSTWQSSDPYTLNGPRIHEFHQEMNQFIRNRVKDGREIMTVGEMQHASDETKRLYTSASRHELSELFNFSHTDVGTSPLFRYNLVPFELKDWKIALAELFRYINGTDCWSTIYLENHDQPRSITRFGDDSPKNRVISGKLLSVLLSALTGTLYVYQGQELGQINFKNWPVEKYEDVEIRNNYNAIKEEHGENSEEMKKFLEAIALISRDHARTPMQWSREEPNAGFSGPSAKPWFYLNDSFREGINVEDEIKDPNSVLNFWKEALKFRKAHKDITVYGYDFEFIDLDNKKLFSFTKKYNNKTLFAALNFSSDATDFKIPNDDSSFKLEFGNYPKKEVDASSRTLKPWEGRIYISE
Procedure: as §1
as §2, with “glycosidases. FIG. 2(b) represents a similar plot of K^appm vs. [Inhibitor], wherein the inhibitor is the disaccharide sugar analog of formula II, obtained for five different glycosidases.” for “glycosidases.”

α-mannosidase (jackbean) = target: T4, α-mannosidase (jackbean) (Canavalia ensiformis, UniProt C0HJB3); experiment: α-mannosidase inhibition, p-nitrophenol-α-mannopyranoside substrate; assay type: biochemical; conditions: 25° C., citrate buffer 0.05M, pH 4.5; read-out: Ki (inhibition constant), α-Mannosidase
T4 construct: purchased Sigma Chemical Company
T4 sequence (C0HJB3 1-562 limits assumed): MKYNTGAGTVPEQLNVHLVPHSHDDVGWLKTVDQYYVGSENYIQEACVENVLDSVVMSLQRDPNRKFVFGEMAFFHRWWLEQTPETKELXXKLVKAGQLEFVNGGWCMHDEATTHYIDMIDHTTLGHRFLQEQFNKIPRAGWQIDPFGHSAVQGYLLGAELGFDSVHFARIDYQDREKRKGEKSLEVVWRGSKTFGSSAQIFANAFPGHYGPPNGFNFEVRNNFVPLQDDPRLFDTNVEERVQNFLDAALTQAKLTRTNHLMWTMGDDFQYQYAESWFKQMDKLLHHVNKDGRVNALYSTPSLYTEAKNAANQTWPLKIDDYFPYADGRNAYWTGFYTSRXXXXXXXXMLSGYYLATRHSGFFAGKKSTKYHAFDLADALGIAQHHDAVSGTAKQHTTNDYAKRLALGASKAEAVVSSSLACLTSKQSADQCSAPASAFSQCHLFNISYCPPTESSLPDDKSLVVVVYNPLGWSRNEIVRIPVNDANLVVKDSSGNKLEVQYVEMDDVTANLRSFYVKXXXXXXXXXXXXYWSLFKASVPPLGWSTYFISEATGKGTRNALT
T4 sequence (C0HJB3 563-981 limits assumed): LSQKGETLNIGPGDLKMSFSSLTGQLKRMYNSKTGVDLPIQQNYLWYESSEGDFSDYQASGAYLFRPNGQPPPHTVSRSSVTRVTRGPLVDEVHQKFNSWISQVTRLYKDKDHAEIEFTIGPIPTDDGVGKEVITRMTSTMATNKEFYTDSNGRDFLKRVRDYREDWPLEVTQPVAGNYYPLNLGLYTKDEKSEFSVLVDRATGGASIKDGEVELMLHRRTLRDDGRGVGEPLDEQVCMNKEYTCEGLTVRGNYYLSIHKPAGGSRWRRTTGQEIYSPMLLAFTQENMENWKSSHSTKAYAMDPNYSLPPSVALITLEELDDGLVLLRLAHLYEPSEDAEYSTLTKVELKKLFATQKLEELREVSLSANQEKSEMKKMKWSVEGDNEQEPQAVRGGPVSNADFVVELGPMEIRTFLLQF
Procedure: as §1, §2

[3] = tested on: glycohydrolase degradation of crop; experiment: agricultural crop treatment, glycohydrolase degradation; conditions: approximately 10 mg/kg of crop per day, several months of treatment
Procedure: A composition for treating agricultural crops containing approximately 10 mg/kg of crop per day of isofagomin is administered to a crop. After several months of treatment, the crop is analyzed.

[4] = tested on: cellulase degradation of wood; experiment: wood treatment, cellulase degradation; conditions: approximately 10 mg/kg of wood per day, several months of treatment
Procedure: A wood treatment composition containing approximately 10 mg/kg of wood per day of isofagomin is administered to a piece of wood. After several months of treatment, the piece of wood is analyzed.

α-glucosidase (yeast) = target: T5, α-glucosidase (yeast) (Saccharomyces cerevisiae, UniProt P53341); experiment: α-glucosidase inhibition, p-nitrophenol-α-glucopyranoside substrate; assay type: biochemical; conditions: 37° C., phosphate buffer 0.05M, pH 6.8; read-out: Ki (inhibition constant), α-Glucosidase
T5 construct: purchased Sigma Chemical Company
T5 sequence (P53341 whole entry): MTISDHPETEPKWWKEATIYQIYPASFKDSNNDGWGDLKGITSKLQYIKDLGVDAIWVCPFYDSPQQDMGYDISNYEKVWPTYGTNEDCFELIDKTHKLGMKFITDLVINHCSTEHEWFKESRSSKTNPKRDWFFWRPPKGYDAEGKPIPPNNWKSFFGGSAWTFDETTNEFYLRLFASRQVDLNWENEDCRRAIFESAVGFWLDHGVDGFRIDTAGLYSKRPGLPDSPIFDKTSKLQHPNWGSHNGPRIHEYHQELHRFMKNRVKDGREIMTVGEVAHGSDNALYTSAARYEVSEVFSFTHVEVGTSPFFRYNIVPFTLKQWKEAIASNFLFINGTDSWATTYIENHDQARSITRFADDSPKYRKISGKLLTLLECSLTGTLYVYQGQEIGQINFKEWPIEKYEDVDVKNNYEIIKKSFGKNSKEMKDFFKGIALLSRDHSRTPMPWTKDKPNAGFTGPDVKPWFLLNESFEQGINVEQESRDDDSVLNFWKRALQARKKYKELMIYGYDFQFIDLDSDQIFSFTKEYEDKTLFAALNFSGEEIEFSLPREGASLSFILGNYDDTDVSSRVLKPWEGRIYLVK
Procedure: as §1, §2

[5] = maltose substrate, 50° C., sodium acetate buffer 0.05M, pH 4.5, read-out: Ki (inhibition constant), Glucoamylase
[6] = 37° C., phosphate buffer 0.05M, pH 6.8, read-out: Ki (inhibition constant), Isomaltase

T1 sequence (Q6P7A9 70-953): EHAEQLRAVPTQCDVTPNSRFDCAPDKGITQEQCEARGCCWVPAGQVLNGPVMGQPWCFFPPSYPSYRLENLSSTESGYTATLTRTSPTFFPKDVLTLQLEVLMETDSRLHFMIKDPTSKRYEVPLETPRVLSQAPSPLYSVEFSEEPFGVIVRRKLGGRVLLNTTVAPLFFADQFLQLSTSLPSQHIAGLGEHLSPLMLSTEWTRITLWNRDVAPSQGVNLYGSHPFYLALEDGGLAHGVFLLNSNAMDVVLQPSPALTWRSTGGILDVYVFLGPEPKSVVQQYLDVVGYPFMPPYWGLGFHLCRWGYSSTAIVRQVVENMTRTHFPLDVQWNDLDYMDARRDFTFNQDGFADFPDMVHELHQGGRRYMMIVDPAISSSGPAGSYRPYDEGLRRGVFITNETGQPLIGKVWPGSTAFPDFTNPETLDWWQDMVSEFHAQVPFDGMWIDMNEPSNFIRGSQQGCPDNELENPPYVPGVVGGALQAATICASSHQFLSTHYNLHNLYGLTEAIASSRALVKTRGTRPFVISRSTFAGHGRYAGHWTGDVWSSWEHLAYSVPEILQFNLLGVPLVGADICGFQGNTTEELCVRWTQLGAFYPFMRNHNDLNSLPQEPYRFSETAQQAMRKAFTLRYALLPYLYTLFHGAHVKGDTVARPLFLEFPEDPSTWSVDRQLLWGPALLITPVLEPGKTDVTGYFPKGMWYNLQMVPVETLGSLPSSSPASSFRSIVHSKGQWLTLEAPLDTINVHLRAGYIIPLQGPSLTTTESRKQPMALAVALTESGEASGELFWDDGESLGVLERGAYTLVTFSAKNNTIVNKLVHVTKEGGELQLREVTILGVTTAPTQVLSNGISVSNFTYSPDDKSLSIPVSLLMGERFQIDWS

In the case of `O[C@H]1[C@H](O)[C@@H](O)CN2CC[C@H](O)[C@H]12` [Castanospermine], the “minimum effective dose required to reduce the glycemic response to sucrose” value [1] is given as 1 mg/kg and the “accumulation of lysosomal glycogen” value (lysosomal α-glucosidase; at the minimum effective dose (1 mg/kg)) is given as “Accumulation of lysosomal glycogen has been found”.
Molecule `OC[C@H]1NC[C@@H](O)[C@@H](O)[C@@H]1O` [Deoxymannojirimycin, reference compound] has a pKi (Glucoamylase; [5]) of 4.18, a pKi (β-glucosidase (almonds)) of […] and a pKi [2] of 4.31.
Molecule `OC[C@H]1NC[C@H](O)[C@@H](O)[C@@H]1O` [Deoxynojirimycin, reference compound] has a pKi (Glucoamylase; [5]) of 5.01, a pKi (β-glucosidase (almonds)) of […] and a pKi [2] of 4.95.
In the case of `CO[C@H]1O[C@H](CN2C[C@H](O)[C@@H](O)[C@H](O)[C@H]2CO)[C@@H](O)[C@H](O)[C@H]1O` [MDL, 1,5-dideoxy-1,5-[(6-deoxy-1-O-methyl-6-α,D-glucopyranosyl)imino]-D-glucitol], the “effect on liver lysosomal α-glucosidase activity or glycogen accumulation” value (lysosomal α-glucosidase; dose 10-fold higher than required to reduce the glycemic response to sucrose) is listed as “did not affect”.
`C[C@H]1O[C@H](O[C@H]2[C@H](O)[C@@H](O)[C@@H](O[C@H]3[C@H](O)[C@@H](O)C(O)O[C@@H]3CO)O[C@@H]2CO)[C@H](O)[C@@H](O)[C@@H]1N[C@H]1C=C(CO)[C@@H](O)[C@H](O)[C@H]1O` (stereo partly shown) [Acarbose, acarbose, reference compound] showed a pKi (α-mannosidase (jackbean)) of 2.12 and a pKi [2] of under 4.00.
For `Cl.OC[C@H]1CNC[C@@H](O)[C@@H]1O` [MB, (3R,4R,5R)-3,4-dihydroxy-5-hydroxymethyl-piperidine hydrochloride], the pKi (α-mannosidase (jackbean)) was 3.11, the pKi (Glucoamylase; [5]) was 5.43 and the “glycohydrolase degradation of treated crop” value [3] was “No glycohydrolase degradation is detected”. The “cellulase degradation of treated wood” value [4] was “No cellulase degradation is detected”, the pKi (β-glucosidase (almonds)) was 6.96 and the “mode of inhibition of β-glucosidase (Lineweaver-Burk plot)” value (β-glucosidase (almonds); FIG. 1(a), three inhibitor concentrations) was “competitive inhibition”. The “inhibition of β-glucosidase, in words” value (β-glucosidase (almonds)) was “surprisingly strong inhibitor”, the “inhibition of β-glucosidase, in words” value (β-glucosidase (almonds); listed as monosaccharide analog) was “particularly strong inhibitor” and the pKi [2, 6] was 5.14. It also gave a pKi (α-glucosidase (yeast)) of 4.07.
`CO[C@H]1O[C@H](CCN2C[C@H](CO)[C@@H](O)[C@H](O)C2)[C@@H](O)[C@H](O)[C@H]1O` [TMJ, Methyl 6,7-dideoxy-7-[(3R,4R,5R)-3,4-dihydroxy-5-hydroxymethyl-piperidinyl]-α-D-gluco-heptopyranoside] gave a pKi (α-mannosidase (jackbean)) of 2.91, a pKi (Glucoamylase) of 7.20 and a pKi [2, 6] of 3.99. The pKi (α-glucosidase (yeast)) was 4.23.
